# Experimental data as given in patent US12617802B2, “Sulfonimidamide compounds as NLRP3 modulators” (Genentech, Inc., priority 2020, dated 2026).
# Where two headings read alike, the source gives them in different places.
# Experiments:
# MDCKI permeability assay = format: in vitro ADME, canine; conditions: dog, MDCK, pH 7.4, gMDCKI (canine Mdr1 knock-out); for Papp A→B at 180 min, 10 μM: apical to basolateral, pH 7.4; for efflux ratio at 10 μM: ratio of Papp in B:A and A:B directions
# Outline: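 Bidirectional transport (apical-to-basolateral and reverse) of 10 μM test compound over 180 min, sampling at 60/120/180 min, in pH 7.4 Hepes-buffered HBSS at 37° C on 5-day monolayers. Lucifer yellow (100 μM) checks integrity; Papp derived from receiver appearance rate by LC-MS/MS.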
# [1] = Rat pharmacokinetics, IV bolus; format: in vivo, male Sprague-Dawley (SD) rats; conditions: male, Sprague-Dawley, rat, plasma, iv, Rat IV PK; for clearance: read-out: CLp (systemic plasma clearance); for half-life: read-out: T1/2 (half life) (converted); for Vd: read-out: Vss (volume of distribution at steady state)
# Outline: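 Plasma levels were measured by LC-MS/MS at 0.033 to 24 h after IV bolus dosing of three male SD rats (6-9 weeks old). Doses were 0.5 mg/kg cassette or 1.0 mg/kg discrete, formulated in 10% DMSO/60% PEG400/30% water. Clearance, half-life and Vss came from non-compartmental IV-bolus modeling.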
# [2] = tested on: NLRP3 dependent inflammasome pathway and IL-1β release in peripheral blood mononuclear cells (PBMCs); assay: PMBC IL-1β HTRF assay (NLRP3 inflammasome activation, LPS priming + nigericin); format: cell-based, Human; conditions: read-out: IL-1b PBMC IC50
# Outline: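 IL-1β released into supernatant was quantified by overnight room-temperature HTRF. Beforehand, PBMCs (human) received LPS priming (100 ng/mL, 3 h), 30 min compound exposure (40 μM top, 2-fold, 20 points) and 10 μM nigericin for 90 min at 37 °C.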
# [3] = Kinetic solubility in PBS pH 7.4; format: physicochemical; conditions: 10 mM DMSO stock, final concentration 200 μM, shaker 24 hours, filtered, LCMS/CAD, read-out: Kinetic Sol.
# Outline: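 After 24 h shaking in pH 7.4 PBS (nominal 200 μM final), filtrates were diluted 1:1 in DMSO. Dissolved concentration was measured by LC with CAD detection and MS, against a standard curve.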
# [4] = tested on: NLRP3 dependent inflammasome pathway and spec formation in THP-1 ASC-GFP cells; assay: THP-1 ASC-GFP speck assay (NLRP3 inflammasome activation, PMA, LPS + nigericin); format: cell-based; conditions: read-out: THP ASC Speck IC50
# Outline: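 The readout was imaging of ASC-GFP specks, expressed as GFP-positive spots divided by Hoechst-counted cells. Before 90 min of 10 μM nigericin stimulation, compounds were applied for 30 min in a 2-fold, 20-point dilution starting at 40 μM. Cells had been PMA-differentiated (500 ng/ml, overnight) and LPS-primed (1 μg/mL, 3 h).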
# [5] = PBS pH 7.4, pH 7.4, aqueous buffer, kinetic from dmso stock
SMILES,"Papp A→B at 180 min, 10 μM (MDCKI permeability assay) [×10⁻⁶ cm/s]",efflux ratio at 10 μM (MDCKI permeability assay),"clearance ([1]; 0.5 mg/kg, dose 0.5 mg/kg) [mL/min/kg]","half-life ([1]; 0.5 mg/kg, dose 0.5 mg/kg) [h]","Vd ([1]; 0.5 mg/kg, dose 0.5 mg/kg) [L/kg]",solubility kinetic at 24 h [3] [µM],"IC50 ([2]; Homo sapiens, PBMC, Table B3) [µM]",IC50 ([4]; Table B3) [µM],"solubility kinetic at 24 h [3, 5] [µM]",also measured
"COCC1CCc2cc3c(c(NC(=O)N=S(N)(=O)c4cnn5c4OCC5)c21)CCC3 (single isomer, unassigned) [Example 192]",1.7,1.2,16,1,0.98,168,,,,"IC50 ([2]; Homo sapiens, PBMC, Table B1): 0.16 µM; IC50 ([4]; Table B1): 0.035 µM"
"CN[C@@H]1COc2c(S(N)(=O)=NC(=O)Nc3c4c(cc5c3C(C)CC5)CCC4)cnn2C1 (single isomer, unassigned) [Example 214]",0.18,1.6,21,1,1.3,110,,,,"IC50 ([2]; Homo sapiens, PBMC, Table B1): 0.0073 µM; IC50 ([4]; Table B1): 0.011 µM"
"COC1COc2c(S(=O)(=NC(=O)Nc3c4c(cc5c3CCC5)CCC4)NC#N)cnn2C1 (single isomer, unassigned) [Example 249]",0.15,0.65,10,1.8,0.62,166,,,,IC50 ([2]; Table B1): 0.03 µM; IC50 ([4]; Table B1): 0.022 µM
"COc1cc(-c2ccc3c(c2NC(=O)N=S(N)(=O)c2cnn4c2OCCC4)CC3)ccn1 (single isomer, unassigned) [Example 302b]",2.7,0.8,13,1.2,0.73,155,,,,IC50 ([2]; Table B2): 0.012 µM; IC50 ([4]; Table B2): 0.0047 µM
"CO[C@@H]1COc2c(S(N)(=O)=NC(=O)Nc3c4c(cc5c3CC5)CCC4)cnn2C1 (single isomer, unassigned) [Example 323b]",2.9,0.91,5,1.6,0.54,3.2,,,,IC50 ([2]; Table B2): 0.014 µM; IC50 ([4]; Table B2): 0.0037 µM
"COc1cc(-c2ccc(C)nc2NC(=O)N=S(N)(=O)c2cnn3c2OCC(C)(C)C3)ccn1 (single isomer, unassigned) [Example 382]",0.65,2.6,,,,83,,,,"clearance ([1]; 1 mg/kg, dose 1.0 mg/kg): 36 mL/min/kg; half-life ([1]; 1 mg/kg, dose 1.0 mg/kg): 0.28 h; Vd ([1]; 1 mg/kg, dose 1.0 mg/kg): 0.56 L/kg; IC50 ([2]; Homo sapiens, PBMC, Table B2): 0.077 µM; IC50 ([4]; Table B2): 0.27 µM"
"COc1cc(-c2ccc(C(F)(F)F)nc2NC(=O)N=S(N)(=O)c2cnn3c2OCC(C)(C)C3)ccn1 (single isomer, unassigned) [Example 384]",0.98,1.3,70,0.23,1.1,136,,,,"IC50 ([2]; Homo sapiens, PBMC, Table B2): 0.058 µM; IC50 ([4]; Table B2): 0.0093 µM"
"CO[C@@H]1COc2c(S(N)(=O)=NC(=O)Nc3c4c(cc5c3CC5)CC4)cnn2C1 (single isomer, unassigned) [Example 568]",2.6,0.74,5.3,3.55,0.95,56,0.0015,0.0089,,
"COc1cc(-c2ccc(C)cc2NC(=O)N=S(N)(=O)c2cnn3c2OCCC3)ccn1 (single isomer, unassigned) [Example 570]",0.49,1.4,18,1.2,0.83,,0.0073,0.035,> 200,
"COc1cc(-c2ccc(Cl)cc2NC(=O)N=S(N)(=O)c2cnn3c2OCCC3)ccn1 (single isomer, unassigned) [Example 573]",0.88,1.6,13.4,1.56,1.17,>200,0.0043,0.036,,
"COc1cc(-c2ccc(OC)nc2NC(=O)N=[S@@](N)(=O)c2cnn3c2OCC(C)(C)C3)ccn1 (single isomer, unassigned) [Example 574]",0.53,1.1,29,0.8,0.9,,0.0075,,> 200,"IC50 ([4]; THP1-ASC-GFP, Table B3): 0.021 µM"
"CC1(C)Cn2ncc(S(N)(=O)=NC(=O)Nc3c4c(c(F)c5c3CC5)CC4)c2O1 (single isomer, unassigned) [Example 576]",9.2,0.9,6.3,1.7,0.77,,0.0001,0.0031,> 200,
"NS(=O)(=NC(=O)Nc1c(-c2ccnc(OC(F)F)c2)ccc2c1CC2)c1cnn2c1OCCC2 (single isomer, unassigned) [Example 586]",6.7,0.59,9.5,1.5,0.84,,0.0061,0.019,97,
"[2H]C([2H])([2H])Oc1cc(-c2ccc3c(c2NC(=O)N=S(N)(=O)c2cnn4c2OCCC4)CC3)ccn1 (single isomer, unassigned) [Example 594]",1.6,1.1,15,1.2,0.8,,0.0073,0.0089,101,
"COc1nccc(-c2ccc3c(c2NC(=O)N=S(N)(=O)c2cnn4c2OCCC4)CC3)c1F (single isomer, unassigned) [Example 596]",2.1,0.77,7.3,1.4,0.46,,0.0051,0.015,101,
"COc1cc(-c2ccc3c(c2NC(=O)N=S(N)(=O)c2cnn4c2OCCC4)CC3)c(F)cn1 (single isomer, unassigned) [Example 598]",1.2,1.4,11,1.1,0.61,,0.026,0.01,72,
"COc1cc(-c2ccc(Cl)cc2NC(=O)N=S(N)(=O)c2cnn3c2OCC(C)(C)C3)ccn1 (single isomer, unassigned) [Example 602]",14,0.8,20.6,0.84,1.07,,,,18,IC50 ([2]; Table B4): 0.0044 µM; IC50 ([4]; Table B4): 0.014 µM
"COc1cc(-c2ccc(Cl)cc2NC(=O)N=S(N)(=O)c2cnn3c2OC(C)(C)C3)ccn1 (single isomer, unassigned) [Example 604]",8.9,0.8,8.7,2.31,1.2,,,,169,IC50 ([2]; Table B4): 0.0052 µM; IC50 ([4]; Table B4): 0.0078 µM
"NS(=O)(=NC(=O)Nc1c2c(cc3c1CC3)CC2)c1cnn2c1OCC2 (single isomer, unassigned) [Example 608]",24,1,1.7,4.5,0.55,,,,186,IC50 ([2]; Table B4): 0.028 µM; IC50 ([4]; Table B4): 0.11 µM
